Results on 104 compounds are retold here after ChEMBL document CHEMBL3507680, “University of Dundee, Gates Library screen for HepG2 cell viability”.

Structures are written as SMILES.

The series in a line: Human HepG2 cell viability assay in 384 well format. In kind it is toxicity, cell-based. More on the design: dose 125 nL, time 70.5 hour; concentration not given beside the values. Conditions: HepG2 cells, read-out: Inhibition.

Consider `CCOCCC(=O)NC(c1noc(C)n1)c1ccccc1F` (centres undefined), for which the cytotoxicity at 70.5 h was -7.31%.
The value for `Cc1nc(C(NS(=O)(=O)N(C)C)c2ccccc2F)no1` (centres undefined) was -2.92%.
The figure for `COC(=O)C1CN(Cc2ccn(-c3ccc(F)cc3)n2)C[C@@H](C)O1` (some centres undefined) is 21.2%.
The value for `NC(=O)NC1CCN(Cc2ccc(Br)c(F)c2)CC1` was -5.43%; that for `CN(Cc1cc(Br)cn1C)C(=O)c1cccnc1` was -8.21%; that for `N#Cc1ccc(SCCC(=O)O)cc1` was -7.41%.
On to `CSCCC(=O)N1CCN(CC(C)(C)O)CC1`, for which the cytotoxicity at 70.5 h is -13.7%.
The figure for `CCCNC(=O)c1cnc2n1CCCC2` is -9.22%; for `COC(=O)CC1CN(Cc2ccn(-c3ccc(F)cc3)n2)CCO1` (centres undefined) it is -8.65%; for `CCc1ccc(C(=O)NC2CCN(c3ccn(C)n3)C2)o1` (centres undefined) it is -2.13%.
On to `CCC(O)CN1CCN(C(=O)CCSC)CC1` (centres undefined), for which the cytotoxicity at 70.5 h amounted to 0.756%.
The figure for `CSCC(=O)N1CCN(CC(O)C(C)(C)C)CC1` (centres undefined) is -10.6%; for `CCC1CN(CCCO)c2ccccc2O1` (centres undefined) it is 0.738%.
The value for `COC1CCCN(C(=O)NCc2ccc(C(=O)N(C)C(C)C)cc2)C1` (centres undefined) was 25.2%; that for `CN(CCc1cccs1)C(=O)Nc1ccc2c(c1)C(=O)N(C)CC2` was -7.01%.
With `COCCN(Cc1ccccn1)C(=O)Nc1cccnc1N1CCCC1`, the cytotoxicity at 70.5 h is -12.3%.
For the compound `O=C(COc1ccc(Br)cc1F)Nc1cn[nH]c1`, the cytotoxicity at 70.5 h was 15.8%.
As to `CCCNC(=O)C(C)NC(=O)Nc1ccccc1SC(F)F` (centres undefined), the cytotoxicity at 70.5 h is -13%.
On to `CCOC1CCN(C(=O)NCc2ccc(CN3CCOCC3)cc2)CC1`, for which the cytotoxicity at 70.5 h is -9.89%.
The value for `CN(CCc1ccccn1)C(=O)Nc1cccnc1N1CCCC1` was 11.3%; that for `Cc1cc(N(C)C)nc(N2CCCC2c2cccnc2)n1` (centres undefined) was -1.47%; that for `Cc1nn(C)c(C)c1C(=O)N1CCN(C(=O)CC2CCCCC2)CC1` was 11.5%.
With `Cc1nsc(N2CCN(Cc3cccc(F)c3)CC2)n1`, the cytotoxicity at 70.5 h is 0.252%.
The value for `Cc1cccc(CN(Cc2ccccn2)Cc2ncc(C(C)(C)C)o2)c1` was -11.5%; that for `O=S(=O)(N1CCC(n2cccc2)CC1)N1CCCC1c1ccco1` (centres undefined) was -10.3%.
The figure for `O=C(NCC(O)c1ccc(Cl)s1)c1ccoc1` (centres undefined) is -8.52%.
The value for `COCCN(Cc1ccc(C)o1)C(=O)Nc1nnc2ccccn12` was -16.7%.
`O=c1[nH]c(C2CCOC2)nc2ccc(Cl)cc12` (centres undefined): the cytotoxicity at 70.5 h amounted to 7.32%.
The value for `CN1CCc2ccc(NCc3cccs3)cc2C1=O` was -15.5%.
The figure for `COCc1nnc(-c2cccc(C(=O)N(C(C)C)C3CCC3)c2)o1` is -12.7%.
As for `Cc1cc(CNc2cc(-c3ccoc3C)nn2CCO)c(C)o1`, the cytotoxicity at 70.5 h is -12.2%.
The figure for `COCCCN(Cc1ccncc1)C(=O)C1COc2ccccc2C1` (centres undefined) is -14.9%; for `COc1cc(NCCNC(=O)c2ccc3[nH]ccc3c2)cc(OC)c1` it is -13.8%.
The figure for `COc1cc(NCCNC(=O)c2cscc2C)cc(OC)c1` is -2.4%.
On to `COCc1nnc(-c2cccc(C(=O)OC(C)C)c2)o1`, for which the cytotoxicity at 70.5 h is -8.2%.
The figure for `CSC1(CNC(=O)N(C)Cc2sccc2C)CCOCC1` is 29.3%.
The value for `Cc1nc(CN2CCCC2Cn2cccn2)nc2ccccc12` (centres undefined) was 7.51%; that for `O=C(c1cc(-c2ccccc2)nc2onc(C3CC3)c12)N1CC[C@H](O)C1` was -11.3%.
The value for `CCOc1ccc(CN(C)C(=O)c2nc(N3CCCC3)ncc2Cl)cc1` was -8.28%; that for `Cc1cc(CN(C)C(=O)CNS(=O)(=O)c2cccs2)no1` was -6.5%.
In the case of `N#Cc1cccnc1NCc1cccnc1N1CCCCC1`, the cytotoxicity at 70.5 h worked out at 4.49%.
The value for `CCc1nc(NC(=O)Cc2csc(-c3nnc[nH]3)n2)sc1C` was -11.9%; that for `CC(C)c1nccn1CC1CCCN1Cc1nc2ccccc2n1C` (centres undefined) was -10.4%; that for `CCc1ccc(CCC(=O)N2CCC(=O)Nc3cccnc32)cc1` was 23.9%.
The figure for `CC(=O)NC1CCCN(c2nc3ccccc3cc2CO)C1` (centres undefined) is 2.9%.
The figure for `Oc1ccc(Br)c(CNc2cccc(-c3nnc[nH]3)c2)c1` is 1.61%.
On to `CNC(=O)COC(=O)c1cccc(-n2ccc(C(F)(F)F)n2)c1`, for which the cytotoxicity at 70.5 h was determined as 0.44%.
On to `CC(C)c1nc(CN(C)S(=O)(=O)c2cccs2)cs1`, for which the cytotoxicity at 70.5 h amounted to 1.87%.
The figure for `CCOC(=O)NC1CCCN(c2cncc(Br)c2)C1` (centres undefined) is 0.767%; for `CCCC(=O)NC1CCCN(c2nc3ccccc3cc2CO)C1` (centres undefined) it is 13.7%; for `CCc1nnc2n1CCN(C(=O)CCc1ccc3c(c1)OCO3)C2` it is -18.7%.
Turning to `NC(=O)Nc1ccc(C(=O)NCCn2cccc2)cc1`, the cytotoxicity at 70.5 h is -11.7%.
The value for `Cc1ccc(C(=O)N(CC2CCCO2)c2ccncc2)o1` (centres undefined) was -8.12%.
The figure for `CC1CCN(C(=O)c2ccc(N(C)Cc3cnn(C)c3)nc2)CC1` is -7.81%.
The figure for `Cc1cc(C(=O)NC2=NCCS2)c(C)n1-c1ccccn1` is -6.96%; for `CCc1n[nH]c(C2CN(C(=O)COCC(F)(F)F)CCO2)n1` (centres undefined) it is -10.6%; for `CC1CCN(C(=O)NCCc2cc(F)ccc2F)C1` (centres undefined) it is -11.9%.
Regarding `COc1ccc(C(=O)CCC(=O)NCc2ncc(C)s2)cc1F`, the cytotoxicity at 70.5 h was -9.89%.
The figure for `Cc1cc(C)n(CC(=O)N(CC2CN(C)CCO2)c2nccs2)n1` (centres undefined) is -4.83%.
The value for `Cc1cnn(CCC(=O)N(CC2CN(C)CCO2)c2nccs2)c1` (centres undefined) was -12.8%; that for `CCc1nc(CN(C)CC(=O)NC(C)C)cs1` was -13.3%.
The figure for `CCc1nc(CN(C)CC(=O)OC(C)(C)C)cs1` is -4.57%; for `CCOC(=O)C1CCCN(Cc2cc(C#N)n(C)c2C)C1` (centres undefined) it is -11.7%.
Turning to `Cc1cnn(CC(=O)N(CC2CN(C)CCO2)c2nccs2)c1` (centres undefined), the cytotoxicity at 70.5 h was -14.4%.
The figure for `O=C(c1cccnc1)N(Cc1ccncc1)C1CC1` is -4.09%.
For `O=S(=O)(CCN1CCCC1Cn1cccn1)c1ccccc1` (centres undefined), the cytotoxicity at 70.5 h is -13.8%.
The value for `CCc1nc(CCNC(=O)NC2CC(=O)N(C(C)(C)C)C2)cs1` (centres undefined) was -5.26%; that for `CS(=O)(=O)NC1CCN(C(=O)c2ccc(F)cc2)CC1` was -3.98%.
The figure for `N#CCCN(CCC#N)C(=O)c1ccc(OCC2CC2)cc1` is -7.55%.
The value for `Cc1occc1C(=O)NCC(=O)NCCOc1ccc2c(c1)CCC2` was -10.4%; that for `NC(=O)CC1CCN(C(=O)c2csc(-c3ccccc3F)n2)CC1` was -18.8%; that for `CCN1CCN(CC(O)c2ccc(Br)cc2)CC1` (centres undefined) was -1.54%.
For the compound `c1ccc(C(c2ccccc2)N2CCN(CCn3cncn3)CC2)cc1`, the cytotoxicity at 70.5 h was -10.4%.
The figure for `NC(=O)CC1CCN(CC(O)c2ccc(Br)cc2)CC1` (centres undefined) is -6.64%; for `Cc1cnn(C2CN(CC(=O)NCC3(c4ccccc4)CC3)C2)c1` it is -6.95%.
The value for `Cc1cnn(C2CN(CC(=O)NCC3(c4ccccc4)CCC3)C2)c1` was -2.82%.
The value for `CC(=O)c1ccc(NC(=O)NC(C)c2ccc3c(c2)CC(=O)N3)cc1` (centres undefined) was 2.82%.
As to `CCc1nsc(N2CCN(C(=O)COc3ccccc3)CC2)n1`, the cytotoxicity at 70.5 h is -6.06%.
The value for `O=C(NCC1(O)CCSCC1)c1ccoc1` was -1.38%.
As for `CC(C)c1nc(C2CCCN2C(=O)c2ccc3nncn3c2)no1` (centres undefined), the cytotoxicity at 70.5 h was 2.23%.
As to `CCc1nsc(N2CCN(CC(=O)NCc3cccnc3)CC2)n1`, the cytotoxicity at 70.5 h was -5.18%.
`COc1ccc(Cl)cc1NC(=O)CCNc1ccc(C#N)cn1`: the cytotoxicity at 70.5 h is -6.33%.
The figure for `COc1cccc(C(O)CNC(=O)CC2CCCCC2)c1` (centres undefined) is -8.34%; for `COc1c(F)cc(NC(=O)NCc2nncn2C2CC2)cc1F` it is 0.912%; for `O=C1CN(CCCNC(=O)Nc2ccccn2)CCN1` it is 1.68%.
The figure for `CC(C)(C)NC(=O)CN1CCCN(Cc2cc(C#N)ccc2F)CC1` is 4.54%.
The figure for `Cc1nsc(N2CCN(CC(=O)NCc3ccc(F)cc3)CC2)n1` is -0.931%.
For the compound `CN(Cc1cnn(C)c1)S(=O)(=O)N1CCCCC1`, the cytotoxicity at 70.5 h was -5.36%.
With `O=C1OCCN1CCN1CCCN(Cc2ccccc2F)CC1`, the cytotoxicity at 70.5 h is -4.26%.
Take `CCc1nsc(N2CCCN(C(=O)COc3ccccc3)CC2)n1`: the cytotoxicity at 70.5 h is -3.48%.
The figure for `COc1cccc(C(=O)NCc2ccccc2S(=O)(=O)N(C)C)c1` is -4.93%.
The figure for `COc1cccc(C(=O)NCc2ccccc2S(=O)(=O)N(C)CCO)c1` is -4.69%.
The figure for `COCCN1CCN(CC(O)c2cc(OC)ccc2OC)CC1` (centres undefined) is -6.61%; for `O=C(NCCSC1CCCC1)c1ccc(F)cc1F` it is -5.35%.
For the compound `NC(=O)N1CCCC(C(=O)NCc2ccccc2OC(F)(F)F)C1` (centres undefined), the cytotoxicity at 70.5 h is -9.4%.
The figure for `CCc1ncncc1C(=O)NCCNC(=O)c1ccc(C)c(F)c1` is -8.42%; for `COC(=O)CNc1cc(C(=O)NCC(F)(F)F)cc(F)c1C` it is -2.26%; for `COC(=O)CCNC(=O)c1ccc(NC(=O)N(C)CC(C)(C)C)cc1` it is -6.05%.
The value for `O=C(CCc1ccccc1)N1CCN(C(=O)c2ccc[nH]2)CC1` was -12.3%; that for `N#Cc1ccc(N2CCCC2Cn2cncn2)nc1` (centres undefined) was -6.25%.
The figure for `CC(C)NC(=O)NCc1ccccc1NS(=O)(=O)c1ccccc1` is 12.7%; for `CC(C)c1nccn1C1CCCN(C(=O)c2ccn(C)c(=O)c2)C1` (centres undefined) it is -4.13%; for `CN(CCCNS(=O)(=O)N1CCC2(CC1)OCCO2)c1ccccc1` it is 22.7%.
Regarding `CN(CCc1ccccn1)Cc1nccn1Cc1ccccc1`, the cytotoxicity at 70.5 h stood at 11.8%.
